{"source": "patent US10045980B2", "about": "“Inhibitor of p38 map kinase” (RESPIVERT LTD, priority 2014, dated 2018)", "key": {"[1]": {"experiment": "Dynamic vapour sorption (DVS)", "assay_type": "physicochemical", "details": "25° C., RH 0-95%", "description": "About 20 mg of test compound was transferred into a SMS dynamic vapor sorption and record the weight change with respect to the atmospheric humidity at 25° C.\nThe following parameters were used:\ndrying: 60 min. under dry nitrogen\nequilibrium: 60 min/Step."}, "[2]": {"experiment": "Chemical stability testing, degradation by UPLC", "assay_type": "physicochemical", "details": "stored up to 30 days, 50-80° C./10-75% RH; data not shown", "description": "Samples were extracted with solvent mixture (DMSO/water 80:20) (7 mL) in a 10 mL vial.\nUPLC chromatography was performed using the following parameters:\nAnalysis run time: 36 min Data collection time: 30 min Injection volume: 5 μL Wavelength: scan between 200 and 400 nm Wavelength used for content uniformity calculations: 334.0 nm\nThe compositions of Examples 4d, 4e, 4f, 4g, 4h and 4i were stored for 14 and 30 days under conditions of 50° C./75% RH, 60° C./30% RH, 60° C./50% RH, 70° C./10% RH, 70° C./75% RH and 80° C./50% RH."}, "[3]": {"tested_on": "sputum macrophages from COPD patients", "experiment": "Cytokine production in LPS-treated sputum macrophages from COPD patients", "assay_type": "cell-based", "details": "Homo sapiens, Macrophage; at 0.1 μg/mL; LPS 1 μg/mL, 18 h; read-out: Percent Inhibition IL-6", "description": "Patients with COPD inhaled a nebulised solution of 3% (w/v) hypertonic saline using an ultrasonic nebuliser (Devilbiss, Carthage, Mo.) with tidal breathing for 5 min. This procedure was repeated a maximum of three times until enough sputum was obtained. The sputum samples were homogenized and mixed vigorously using a vortex mixer in 0.02% v/v dithiothreitol (DTT) solution. The samples were re-suspended in PBS (40 mL) followed by centrifugation at 1500 rpm at 4° C. for 10 min to obtain sputum cell pellets. The pellets were washed with PBS (40 mL). […]\nWhere appropriate, 1 μL of a solution containing either the test compound or reference article at the stated concentrations (either 0.1 μg/mL, 0.01 μg/mL, or 0.001 μg/mL) or alternatively 1 μL of DMSO as the vehicle control was added to each well (200 μL in media) and the cells were incubated for 2 h. […] After washing with 200 μL wash buffer per well, the beads were resuspended in sheath fluid (150 μL) and analyzed immediately. The level of each analyte in the supernatant was calculated using Xcel Fit software with a 4 or 5-parameter equation using each standard curve. The inhibitions of each cytokine production were calculated at each concentration by comparison with vehicle control."}, "[4]": {"tested_on": "BEAS2B cells", "experiment": "Poly I:C-induced ICAM-1 expression in BEAS2B cells", "assay_type": "cell-based", "details": "Homo sapiens, BEAS-2B, 18 h after poly I:C transfection, read-out: PolyIC/ICAM1 IC50 (BEAS2B)", "description": "Poly I:C was used in these studies as a simple, RNA virus mimic. Poly I:C-Oligofectamine mixture (2% Oligofectamine±1 μg/mL Poly I:C, 25 μL; Life Technologies and Invivogen Ltd., San Diego, Calif., respectively) was transfected into BEAS2B cells (human bronchial epithelial cells, ATCC). Cells were pre-incubated with final concentrations of test compounds for 2 h and the level of ICAM-1 expression on the cell surface was determined by cell-based ELISA. […]\nThe cells were washed with PBS-Tween (3×200 μL) and incubated with the secondary antibody (100 μL; HRP-conjugated anti-rabbit IgG, Dako Ltd., Glostrup, Denmark). […] The ICAM-1 signal was detected by reading the absorbance at 450 nm against a reference wavelength of 655 nm using a spectrophotometer. The cells were then washed with PBS-Tween (3×200 μL) and total cell numbers in each well were determined by reading absorbance at 595 nm after Crystal Violet staining (50 μL of a 2% solution in PBS) and elution by 1% SDS solution (100 μL) in PBS. The measured OD 450-655 readings were corrected for cell number by dividing with the OD595 reading in each well. The inhibition of ICAM-1 expression was calculated at each concentration of test compound by comparison with vehicle control."}}, "note": "Structures can show the parent of a compound that is named as a salt."}
{"smiles": "CCc1cncc(Nc2cc(COc3ccc(NC(=O)Nc4cc(C(C)(C)C)nn4-c4ccc(C)cc4)c4ccccc34)ccn2)n1", "note": "[Example 2A, 1-(3-(tert-butyl)-1-(p-tolyl)-1H-pyrazol-5-yl)-3-(4-((2-((6-ethylpyrazin-2-yl)amino)pyridin-4-yl)methoxy)naphthalen-1-yl)urea maleate (Form 2)]", "values": [{"measurement": "hygroscopicity (DVS)", "setting": "[1]", "value": "does not appear to be hygroscopic"}, {"measurement": "hygroscopicity (DVS)", "setting": "[1]; listed as Example 3B", "value": "appeared not to be hygroscopic"}, {"measurement": "percentage of total degradation, unmicronised and unblended material", "setting": "[2]", "value": "always lower than that for the free base"}]}
{"smiles": "CCC(=O)O[C@]1(C(=O)SCF)[C@H](C)C[C@H]2[C@@H]3C[C@H](F)C4=CC(=O)C=C[C@]4(C)[C@@]3(F)[C@@H](O)C[C@@]21C", "note": "[Fluticasone propionate, fluticasone propionate, reference compound]", "values": [{"measurement": "inhibition at 0.1 µg/mL", "setting": "[3]", "value": "29 ± 21", "unit": "%"}]}
{"smiles": "COCC(=O)Nc1cc(Oc2ccc(NC(=O)Nc3cc(C(C)(C)C)nn3-c3ccc(C)cc3)c3ccccc23)ccn1", "note": "[Reference Compound, N-(4-(4-(3-(3-tert-Butyl-1-p-tolyl-1H-pyrazol-5-yl)ureido)naphthalen-1-yloxy)pyridin-2-yl)-2-methoxyacetamide, reference compound]", "values": [{"measurement": "IC50", "setting": "[4]", "value": 3.8, "unit": "nM"}]}
